Data published in US6737383B1, “Herbicidal oxadiazolidines” (priority 1999, dated 2004).

How the values were obtained:
[1] = test system: cocklebur; assay: Test C postemergence cocklebur; format: in vivo, Xanthium strumarium; conditions: 0 to 100 scale, 0 no effect, 100 complete control
Description: (§1) Compounds evaluated in this test were formulated in a non-phytotoxic solvent mixture which included a surfactant and applied to plants that were grown for various periods of time before treatment (postemergence application). A mixture of sandy loam soil and greenhouse potting mix in a 60:40 ratio was used for the postemergence test.
(§2) Plantings of these crops and weed species were adjusted to produce plants of appropriate size for the postemergence test. All plant species were grown using normal greenhouse practices. Crop and weed species include arrowleaf sida (Sida rhombifolia), barnyardgrass (Echinochloa crus-galli), cocklebur (Xanthium strumarium), common ragweed (Ambrosia elatior), corn (Zea mays), cotton (Gossypium hirsutum), eastern black nightshade (Solanum ptycanthum), fall panicum (Panicum dichotomiflorum), field bindweed (Convolvulus arvensis), giant foxtail (Setaria faberii), hairy beggarticks (Bidens pilosa), ivyleaf morningglory (Ipomoea hederacea), johnsongrass (Sorghum halepense), ladysthumb smartweed (Polygonum persicaria), lambsquarters (Chenopodium album), large crabgrass (Digitaria sanguinalis), purple nutsedge (Cyperus rotundus), redroot pigweed (Amaranthus retroflexus), soybean (Glycine max), surinam grass (Brachiaria decumbens), velvetleaf (Abutilon theophrasti) and wild poinsettia (Euphorbia heterophylla).
(§3) Treated plants and untreated controls were maintained in a greenhouse for approximately 14, to 21 days, after which all treated plants were compared to untreated controls and visually evaluated. Plant response ratings, summarized in Table C, were based upon a 0 to 100 scale where 0 was no effect and 100 was complete control. A dash response (−) means no test result.

[2] = test system: ivyleaf morningglory; assay: Test C postemergence ivyleaf morningglory; format: in vivo, Ipomoea hederacea; conditions: 0 to 100 scale, 0 no effect, 100 complete control
Description: as §1, §2, §3

[3] = test system: large crabgrass; assay: Test C postemergence large crabgrass; format: in vivo, Digitaria sanguinalis; conditions: 0 to 100 scale, 0 no effect, 100 complete control
Description: as §1, §2, §3

[4] = test system: purple nutsedge; assay: Test C postemergence purple nutsedge; format: in vivo, Cyperus rotundus; conditions: 0 to 100 scale, 0 no effect, 100 complete control
In short: (§4)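 Visual injury scored 0-100 (100 = complete control) versus untreated plants roughly 14 to 21 days after treatment. Plants were grown to suitable size in 60:40 sandy loam and potting mix, then treated postemergence with surfactant-containing solvent formulations.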

[5] = test system: soybean; assay: Test C postemergence soybean; format: in vivo, Glycine max; conditions: 0 to 100 scale, 0 no effect, 100 complete control
Description: as §1, §2, §3

[6] = test system: velvetleaf; assay: Test C postemergence velvetleaf; format: in vivo, Abutilon theophrasti; conditions: 0 to 100 scale, 0 no effect, 100 complete control
In short: as §4

[7] = test system: galium; assay: Test E galium; format: in vivo, Galium aparine; conditions: Postemergence; for Plant response rating, Galium: 0 to 100 scale
In short: (§5)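 Greenhouse test: compounds in non-phytotoxic solvent with surfactant; for postemergence, sprayed on plants at 1- to 4-leaf stage grown in 60:40 sandy loam/potting mix. Injury rated visually against untreated controls after about 21 to 28 days.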

[8] = test system: Italian ryegrass; assay: Test E Italian ryegrass; format: in vivo, Lolium multiflorum; conditions: Postemergence; for Plant response rating, I. Ryegrass: 0 to 100 scale
In short: as §5

[9] = test system: lambsquarters; assay: Test E lambsquarters; format: in vivo, Chenopodium album; conditions: Postemergence; for Plant response rating Lambsquarters: 0 to 100 scale
Description: as §1, with “in the 1- to 4-leaf stage” for “grown for various periods of time before treatment”
(§6) Plantings of these crops and weed species were adjusted to produce plants of appropriate size for the postemergence test. All plant species were grown using normal greenhouse practices. Crop and weed species include annual bluegrass (Poa annua), blackgrass (Alopecurus myosuroides), black nightshade (Solanum nigra), chickweed (Stellaria media), common poppy (Papaver rhoeas), deadnettle (Lamium amplexicaule), downy brome (Bromus tectorum), field violet (Viola arvensis), galium (Galium aparine), green foxtail (Setaria viridis), Italian ryegrass (Lolium multiflorum), jointed goatgrass (Aegilops cylindrica), kochia (Kochia scoparia), lambsquarters (Chenopodium album), littleseed canarygrass (Phalaris minor), rape (Brassica napus), redroot pigweed (Amaranthus retroflexus), Russian thistle (Salsola kali), scentless chamomile (Matricaria inodora), spring barley (Hordeum vulgare), sugar beet (Beta vulgaris), sunflower (Helianthus annuus), ivyleaf speedwell (Veronica hederaefolia), spring wheat (Triticum aestivum), winter wheat (Triticum aestivum), wild buckwheat (Polygonum convolvulus), wild mustard (Sinapis arvensis), wild oat (Avena fatua), windgrass (Apera spica-venti) and winter barley (Hordeum vulgare).
(§7) Treated plants and untreated controls were maintained in a greenhouse for approximately 21 to 28 days, after which all treated plants were compared to untreated controls and visually evaluated. […] A dash response (-) means no test result.

[10] = test system: scentless chamomile; assay: Test E scentless chamomile; format: in vivo, Matricaria inodora; conditions: Postemergence; for Plant response rating, Scentless chamo: 0 to 100 scale
Description: as §1, with “in the 1- to 4-leaf stage” for “grown for various periods of time before treatment”
as §6, §7

[11] = test system: itchgrass; assay: Test D itchgrass; format: in vivo, Rottboellia exaltata; conditions: Postemergence, 0 to 100 scale
[12] = test system: purple nutsedge; assay: Test D purple nutsedge; format: in vivo, Cyperus rotundus; conditions: Postemergence, 0 to 100 scale
[13] = test system: tall mallow; assay: Test D tall mallow; format: in vivo, Malva sylvestris; conditions: Postemergence, 0 to 100 scale
[14] = test system: Russian thistle; assay: Test E Russian thistle; format: in vivo, Salsola kali; conditions: Preemergence
[15] = test system: wild mustard; assay: Test E wild mustard; format: in vivo, Sinapis arvensis; conditions: Preemergence
[16] = test system: Green foxtail; assay: Test D green foxtail; format: in vivo; conditions: Rate 250 g/ha; Postemergence; 0 to 100 scale
[17] = Rate 125 g/ha, 0 is no effect, 100 is complete control
[18] = Rate 250 g/ha, 0 to 100 scale where 0 is no effect and 100 is complete control
[19] = Rate 500 g/ha, 0 is no effect, 100 is complete control
[20] = Rate 16 g/ha, 0 no injury, 100 complete control
[21] = Rate 32 g/ha, 0 no injury, 100 complete control
[22] = Rate 64 g/ha, 0 no injury, 100 complete control
[23] = Rate 125 g/ha, 0 no injury, 100 complete control
[24] = Rate 125 g/ha, 0 to 100 scale (0 no effect, 100 complete control)
[25] = Rate 500 g/ha, 0 to 100 scale where 0 is no effect and 100 is complete control

Question: What does the source list for `CC(C)N(C(=O)n1oc(=O)n(C2CC2)c1=O)c1ccc(F)cc1` [Compound 242]?
Answer: Plant response rating, Cocklebur ([1]; Rate 140 g/ha): 0; Plant response rating, Cocklebur ([1]; Rate 280 g/ha): 0; Plant response rating, Cocklebur ([1]; Rate 560 g/ha): 0; Plant response rating, Cocklebur ([1]; Rate 1120 g/ha): 20; Plant response rating I. morningglory ([2]; Rate 140 g/ha): 0; Plant response rating I. morningglory ([2]; Rate 280 g/ha): 0; Plant response rating I. morningglory ([2]; Rate 560 g/ha): 0; Plant response rating I. morningglory ([2]; Rate 1120 g/ha): 0; Plant response rating, Large crabgrass ([3]; Rate 140 g/ha): 10; Plant response rating, Large crabgrass ([3]; Rate 280 g/ha): 30; Plant response rating, Large crabgrass ([3]; Rate 560 g/ha): 85; Plant response rating, Large crabgrass ([3]; Rate 1120 g/ha): 85; Plant response rating, Purple nutsedge ([4]; Rate 140 g/ha): 0; Plant response rating, Purple nutsedge ([4]; Rate 280 g/ha): 0; Plant response rating, Purple nutsedge ([4]; Rate 560 g/ha): 10; Plant response rating, Purple nutsedge ([4]; Rate 1120 g/ha): 80; Plant response rating, Soybean ([5]; Rate 140 g/ha): 20; Plant response rating, Soybean ([5]; Rate 280 g/ha): 25; Plant response rating, Soybean ([5]; Rate 560 g/ha): 25; Plant response rating, Soybean ([5]; Rate 1120 g/ha): 65; Plant response rating, Velvetleaf ([6]; Rate 140 g/ha): 0; Plant response rating, Velvetleaf ([6]; Rate 280 g/ha): 0; Plant response rating, Velvetleaf ([6]; Rate 560 g/ha): 40; Plant response rating, Velvetleaf ([6]; Rate 1120 g/ha): 60; Plant response rating, Galium ([7]; Rate 62 g/ha): 0; Plant response rating, Galium [7, 17]: 20; Galium plant response rating [7, 18]: 30; Plant response rating, Galium [7, 19]: 40; Plant response rating, I. Ryegrass ([8]; Rate 62 g/ha): 50; Plant response rating, I. Ryegrass [8, 17]: 0; I. Ryegrass plant response rating [8, 18]: 70; Plant response rating, I. Ryegrass [8, 19]: 60; Plant response rating Lambsquarters ([9]; Rate 62 g/ha): 10; Plant response rating Lambsquarters [9, 17]: 0; Lambsquarters plant response rating [9, 18]: 0; Plant response rating Lambsquarters [9, 19]: 0; Plant response rating, Scentless chamo ([10]; Rate 62 g/ha): 55; Plant response rating, Scentless chamo [10, 17]: 40; Scentless chamo plant response rating [10, 18]: 0; Plant response rating, Scentless chamo [10, 19]: 20; Plant response rating, Itchgrass [11, 20]: 0; Plant response rating, Itchgrass [11, 21]: 0; Plant response rating, Itchgrass [11, 22]: 40; Plant response rating, Itchgrass [11, 23]: 80; Plant response rating, Itchgrass ([11]; Rate 250 g/ha): 100; Plant response rating, Purple nutsedge [12, 20]: 0; Plant response rating, Purple nutsedge [12, 21]: 0; Purple nutsedge plant response rating [12, 22]: 0; Purple nutsedge plant response rating [12, 23]: 0; Plant response rating, Purple nutsedge ([12]; Rate 250 g/ha): 100; Plant response rating, Tall Mallow [13, 20]: 0; Plant response rating, Tall Mallow [13, 21]: 0; Tall Mallow plant response rating [13, 22]: 50; Tall Mallow plant response rating [13, 23]: 90; Plant response rating, Tall Mallow ([13]; Rate 250 g/ha): 100; Plant response rating, Russian thistle [14, 24]: 20; Russian thistle plant response rating (0 to 100 scale) ([14]; Rate 250 g/ha): 30; Plant response rating, Russian thistle [14, 25]: 50; Plant response rating, Wild mustard [15, 24]: 65; Wild mustard plant response rating (0 to 100 scale) ([15]; Rate 250 g/ha): 65; Plant response rating, Wild mustard [15, 25]: 70; Plant response rating, Green foxtail [16]: 100

Question: Which “Plant response rating, Itchgrass” value [11, 20] does the source give for `CC(C)N(C(=O)n1oc(=O)n(C2CCCCCC2)c1=O)c1ccc(F)cc1F` [Compound 342] here?
Answer: 0

Question: And the “Plant response rating, Itchgrass” value [11, 21]?
Answer: 0

Question: And the “Plant response rating, Itchgrass” value [11, 22]?
Answer: 0

Question: And the “Plant response rating, Itchgrass” value [11, 23]?
Answer: 0

Question: And the “Plant response rating, Itchgrass” value ([11]; Rate 250 g/ha)?
Answer: 0

Question: And the “Plant response rating, Purple nutsedge” value [12, 20]?
Answer: 0

Question: And the “Plant response rating, Purple nutsedge” value [12, 21]?
Answer: 0

Question: And the “Purple nutsedge plant response rating” value [12, 22]?
Answer: 0

Question: What about the “Purple nutsedge plant response rating” value [12, 23] of the same compound?
Answer: 0

Question: What about the “Plant response rating, Purple nutsedge” value ([12]; Rate 250 g/ha) of the same compound?
Answer: 0

Question: What about the “Plant response rating, Tall Mallow” value [13, 20] of the same compound?
Answer: 0

Question: What about the “Plant response rating, Tall Mallow” value [13, 21] of the same compound?
Answer: 0

Question: What about the “Tall Mallow plant response rating” value [13, 22] of the same compound?
Answer: 0

Question: What about the “Tall Mallow plant response rating” value [13, 23] of the same compound?
Answer: 0

Question: And the “Plant response rating, Tall Mallow” value ([13]; Rate 250 g/ha)?
Answer: 10

Question: And the “Plant response rating, Green foxtail” value [16]?
Answer: 100
